From US10159640B2, “Prebiotic oral care compositions containing amino acids” (COLGATE-PALMOLIVE COMPANY, priority 2013, dated 2018)

Experiments:
Format in all cases: cell-based
Actinomyces naeslundii = test: Extent of growth, growth curves in BHI; conditions: control = 1
Description: (§1) The extent of growth of the tested bacteria in response to selected compounds (Met-Pro, Phe-Glu) was investigated by setting up growth curves in a nutritionally rich medium (brain heart infusion broth (BHI), Oxoid), over 48 hours. Late exponential growth phase liquid cultures were prepared by transferring the respective bacterium from blood agar plates to BHI and overnight incubation at 37° C. in an anaerobic atmosphere for A. viscosus, V. parvula, F. nucleatum, P. gingivalis, P. intermedia, T. forsythia, A. naeslundii, and C. sputigena, and in a 5% CO2 environment for S. salivarius, S. sanguinis, S. mitis, A. actinomycetemcomitans, S. mutans, S. sobrinus and S. gordonii. Overnight cultures were transferred to BHI and adjusted to a concentration of 1×10^7 CFU/ml (colony forming units per ml) by measuring the optical density at 600 nm (OD600) (BioRad SmartSpec 3000). For each strain, 200 μl of the bacterial suspension was added to a 96-well plate containing 20 μl of the respective di-peptides. Final concentrations of the di-peptides were set to 5, 10, 20 and 25 μmol/ml. […] Plates were incubated as previously described.
(§2) For each combination of bacterium/dipeptide, and for each of their respective controls (i.e. the particular bacterium in the nutritionally rich medium with no dipeptide), the optical density was measured at 630 nm (OD630) at 0 h, 24 h and 48 h (Thermo Scientific Multiskan Ascent). Additionally, the OD630 for combinations of bacterium/dipeptide grown in a 5% CO2 environment were also measured every hour between 0 h and 9 h.
(§3) The experiment was carried out on three different days (thus providing 3 biological replicas) and on each day the experiment was carried out in quadruple (thus providing 4 technical replicas) for each combination of bacterium with dipeptide and for each control. For each day and for each combination, the average (mean) of the values obtained (as detailed above) for the four technical replicas was calculated to provide a single value for each combination on each day. The values shown in Tables 5 to 6, below, are the average (mean) of the three single values obtained for each combination of bacterium with dipeptide.

Actinomyces viscosus = test: Extent of growth, growth curves in BHI; conditions: control = 1
Description: as §1, §2, §3

[1] = system: Aggregatibacter actinomycetemcomitans; test: Extent of growth, growth curves in BHI; conditions: control = 1
Description: as §1, §2, §3

Capnocytophaga sputigena = test: Extent of growth, growth curves in BHI; conditions: control = 1
Description: as §1, §2, §3

Fusobacterium nucleatum = test: Extent of growth, growth curves in BHI; conditions: control = 1
Description: as §1, §2, §3

Porphyromonas gingivalis = test: Extent of growth, growth curves in BHI; conditions: control = 1
Description: as §1, §2, §3

Prevotella intermedia = test: Extent of growth, growth curves in BHI; conditions: control = 1
Description: as §1, §2, §3

Streptococcus gordonii = test: Extent of growth, growth curves in BHI; conditions: control = 1
Description: as §1, §2, §3

Streptococcus mitis = test: Extent of growth, growth curves in BHI; conditions: control = 1
Description: as §1, §2, §3

Streptococcus mutans = test: Extent of growth, growth curves in BHI; conditions: control = 1
Description: as §1, §2, §3

Streptococcus salivarius = test: Extent of growth, growth curves in BHI; conditions: control = 1
Description: as §1, §2, §3

Streptococcus sanguinis = test: Extent of growth, growth curves in BHI; conditions: control = 1
Description: as §1, §2, §3

Streptococcus sobrinus = test: Extent of growth, growth curves in BHI; conditions: control = 1
Description: as §1, §2, §3

Tannerella forsythia = test: Extent of growth, growth curves in BHI; conditions: control = 1
Description: as §1, §2, §3

Veillonella parvula = test: Extent of growth, growth curves in BHI; conditions: control = 1
Description: as §1, §2, §3

[2] = system: beneficial oral bacteria and pathogenic oral bacteria; test: Extent of growth, whole panel: prebiotic effect; conditions: threshold value of 1.25
Excerpt: Substrates that were able to increase the growth (or maximal growth density or extent of growth) of at least one of the above beneficial bacteria while not or only minimally increasing the growth (or maximal growth density) of the pathogenic bacteria are considered to be prebiotic compounds.
as §1, §2, §3
This value was selected in order to exclude low-stimulating metabolites and avoid false positive results.

Substance: Met-Pro
- extent of growth: maximal OD630 over 48 hr divided by maximal OD of control (Actinomyces naeslundii; 5 μmol/ml): 0.8420
- extent of growth: maximal OD630 over 48 hr divided by maximal OD of control (Actinomyces naeslundii; 10 μmol/ml): 0.8131
- extent of growth: maximal OD630 over 48 hr divided by maximal OD of control (Actinomyces naeslundii; 20 μmol/ml): 0.5466
- extent of growth: maximal OD630 over 48 hr divided by maximal OD of control (Actinomyces naeslundii; 25 μmol/ml): 0.3360
- extent of growth: maximal OD630 over 48 hr divided by maximal OD of control (Actinomyces viscosus; 5 μmol/ml): 0.4873
- extent of growth: maximal OD630 over 48 hr divided by maximal OD of control (Actinomyces viscosus; 10 μmol/ml): 0.4102
- extent of growth: maximal OD630 over 48 hr divided by maximal OD of control (Actinomyces viscosus; 20 μmol/ml): 0.3154
- extent of growth: maximal OD630 over 48 hr divided by maximal OD of control (Actinomyces viscosus; 25 μmol/ml): 0.2498
- extent of growth: maximal OD630 over 48 hr divided by maximal OD of control ([1]; 5 μmol/ml): 0.7454
- extent of growth: maximal OD630 over 48 hr divided by maximal OD of control ([1]; 10 μmol/ml): 0.6321
- extent of growth: maximal OD630 over 48 hr divided by maximal OD of control ([1]; 20 μmol/ml): 0.3282
- extent of growth: maximal OD630 over 48 hr divided by maximal OD of control ([1]; 25 μmol/ml): 0.2297
- extent of growth: maximal OD630 over 48 hr divided by maximal OD of control (Capnocytophaga sputigena; 5 μmol/ml): 0.9618
- extent of growth: maximal OD630 over 48 hr divided by maximal OD of control (Capnocytophaga sputigena; 10 μmol/ml): 3.5579
- extent of growth: maximal OD630 over 48 hr divided by maximal OD of control (Capnocytophaga sputigena; 20 μmol/ml): 2.9796
- extent of growth: maximal OD630 over 48 hr divided by maximal OD of control (Capnocytophaga sputigena; 25 μmol/ml): 0.9701
- extent of growth: maximal OD630 over 48 hr divided by maximal OD of control (Fusobacterium nucleatum; 5 μmol/ml): 0.8422
- extent of growth: maximal OD630 over 48 hr divided by maximal OD of control (Fusobacterium nucleatum; 10 μmol/ml): 0.8667
- extent of growth: maximal OD630 over 48 hr divided by maximal OD of control (Fusobacterium nucleatum; 20 μmol/ml): 0.7782
- extent of growth: maximal OD630 over 48 hr divided by maximal OD of control (Fusobacterium nucleatum; 25 μmol/ml): 0.7273
- extent of growth: maximal OD630 over 48 hr divided by maximal OD of control (Porphyromonas gingivalis; 5 μmol/ml): 0.8702
- extent of growth: maximal OD630 over 48 hr divided by maximal OD of control (Porphyromonas gingivalis; 10 μmol/ml): 0.8266
- extent of growth: maximal OD630 over 48 hr divided by maximal OD of control (Porphyromonas gingivalis; 20 μmol/ml): 0.7021
- extent of growth: maximal OD630 over 48 hr divided by maximal OD of control (Porphyromonas gingivalis; 25 μmol/ml): 0.4276
- extent of growth: maximal OD630 over 48 hr divided by maximal OD of control (Prevotella intermedia; 5 μmol/ml): 0.9177
- extent of growth: maximal OD630 over 48 hr divided by maximal OD of control (Prevotella intermedia; 10 μmol/ml): 0.9742
- extent of growth: maximal OD630 over 48 hr divided by maximal OD of control (Prevotella intermedia; 20 μmol/ml): 0.3193
- extent of growth: maximal OD630 over 48 hr divided by maximal OD of control (Prevotella intermedia; 25 μmol/ml): 0.2336
- extent of growth: maximal OD630 over 48 hr divided by maximal OD of control (Streptococcus gordonii; 5 μmol/ml): 0.9757
- extent of growth: maximal OD630 over 48 hr divided by maximal OD of control (Streptococcus gordonii; 10 μmol/ml): 0.9528
- extent of growth: maximal OD630 over 48 hr divided by maximal OD of control (Streptococcus gordonii; 20 μmol/ml): 0.7735
- extent of growth: maximal OD630 over 48 hr divided by maximal OD of control (Streptococcus gordonii; 25 μmol/ml): 0.6853
- extent of growth: maximal OD630 over 48 hr divided by maximal OD of control (Streptococcus mitis; 5 μmol/ml): 0.9134
- extent of growth: maximal OD630 over 48 hr divided by maximal OD of control (Streptococcus mitis; 10 μmol/ml): 1.2332
- extent of growth: maximal OD630 over 48 hr divided by maximal OD of control (Streptococcus mitis; 20 μmol/ml): 1.8922
- extent of growth: maximal OD630 over 48 hr divided by maximal OD of control (Streptococcus mitis; 25 μmol/ml): 1.7501
- extent of growth: maximal OD630 over 48 hr divided by maximal OD of control (Streptococcus mutans; 5 μmol/ml): 0.9473
- extent of growth: maximal OD630 over 48 hr divided by maximal OD of control (Streptococcus mutans; 10 μmol/ml): 0.9083
- extent of growth: maximal OD630 over 48 hr divided by maximal OD of control (Streptococcus mutans; 20 μmol/ml): 0.7929
- extent of growth: maximal OD630 over 48 hr divided by maximal OD of control (Streptococcus mutans; 25 μmol/ml): 0.5618
- extent of growth: maximal OD630 over 48 hr divided by maximal OD of control (Streptococcus salivarius; 5 μmol/ml): 0.9729
- extent of growth: maximal OD630 over 48 hr divided by maximal OD of control (Streptococcus salivarius; 10 μmol/ml): 1.0153
- extent of growth: maximal OD630 over 48 hr divided by maximal OD of control (Streptococcus salivarius; 20 μmol/ml): 0.7572
- extent of growth: maximal OD630 over 48 hr divided by maximal OD of control (Streptococcus salivarius; 25 μmol/ml): 0.5262
- extent of growth: maximal OD630 over 48 hr divided by maximal OD of control (Streptococcus sanguinis; 5 μmol/ml): 0.9059
- extent of growth: maximal OD630 over 48 hr divided by maximal OD of control (Streptococcus sanguinis; 10 μmol/ml): 0.9070
- extent of growth: maximal OD630 over 48 hr divided by maximal OD of control (Streptococcus sanguinis; 20 μmol/ml): 0.6852
- extent of growth: maximal OD630 over 48 hr divided by maximal OD of control (Streptococcus sanguinis; 25 μmol/ml): 0.5011
- extent of growth: maximal OD630 over 48 hr divided by maximal OD of control (Streptococcus sobrinus; 5 μmol/ml): 0.9294
- extent of growth: maximal OD630 over 48 hr divided by maximal OD of control (Streptococcus sobrinus; 10 μmol/ml): 1.0301
- extent of growth: maximal OD630 over 48 hr divided by maximal OD of control (Streptococcus sobrinus; 20 μmol/ml): 1.0167
- extent of growth: maximal OD630 over 48 hr divided by maximal OD of control (Streptococcus sobrinus; 25 μmol/ml): 0.8547
- extent of growth: maximal OD630 over 48 hr divided by maximal OD of control (Tannerella forsythia; 5 μmol/ml): 0.9244
- extent of growth: maximal OD630 over 48 hr divided by maximal OD of control (Tannerella forsythia; 10 μmol/ml): 0.9743
- extent of growth: maximal OD630 over 48 hr divided by maximal OD of control (Tannerella forsythia; 20 μmol/ml): 0.7533
- extent of growth: maximal OD630 over 48 hr divided by maximal OD of control (Tannerella forsythia; 25 μmol/ml): 0.7018
- extent of growth: maximal OD630 over 48 hr divided by maximal OD of control (Veillonella parvula; 5 μmol/ml): 0.9980
- extent of growth: maximal OD630 over 48 hr divided by maximal OD of control (Veillonella parvula; 10 μmol/ml): 0.9808
- extent of growth: maximal OD630 over 48 hr divided by maximal OD of control (Veillonella parvula; 20 μmol/ml): 0.9516
- extent of growth: maximal OD630 over 48 hr divided by maximal OD of control (Veillonella parvula; 25 μmol/ml): 0.9671
- prebiotic effects (extent of growth) ([2]; 10 μmol/ml): exhibited prebiotic effects
- prebiotic effects (extent of growth) ([2]; 20 μmol/ml): exhibited prebiotic effects
- prebiotic effects (extent of growth) ([2]; 25 μmol/ml): exhibited prebiotic effects
